# Laboratory results from patent US10925890B2, “Use of dextran sulfate” (TX MEDIC AB, priority 2014, dated 2021).
# Experiments:
# [1] = Body weight, mouse critical limb ischemia study; assay type: in vivo
# Text: In total 60 male Balb/c mice, 9 weeks old, having an average body weight of 24.7 g at study initiation (day 0) were obtained from Harlan Laboratories, Israel. The minimal and maximal weight recorded in each group was within the range of ±20% of the group mean. Animals were handled according to the National Institute of Health (NIH) and the Association for Assessment and Accreditation of Laboratory Animal Care (AAALAC). Animals were housed in polysufone (PSU) cages (5/cage) measuring […], with stainless steel top grill having facilities for pelleted food and drinking water in glass-clear polycarbonate bottle; bedding: steam sterilized clean paddy husk (Harlan, Sani-chip, Cat #: 106S8216) was used and bedding material was changed along with the cage at least twice a week. Animals were fed ad libitum a commercial rodent diet (Teklad Certified Global 18% Protein Diet cat #: 106S8216). Animals had free access to autoclaved and acidified drinking water (pH between 2.5 and 3.5) obtained from the municipality supply. Animals were housed under standard laboratory conditions, air conditioned and filtered (HEPA F6/6) with adequate fresh air supply (minimum 15 air changes/hour). Animals were kept in a climate controlled environment. Temperatures range was 20-24° C. and RH range was 30-70% with 12 hours light and 12 hours dark cycle.
# Body weight was measured on study day −1 prior to surgery and once a week thereafter. […] From day 14 onwards a gradual increase in weight was observed. Accordingly, between day 0 and day 35 the mean increase in body weight ranged between 0.4 g to 1.7 g, see Table 2.
# [2] = Adverse effects / general health, mouse hind-limb ischemia study; assay type: in vivo; conditions: 10 or 30 mg/kg s.c., up to day 35
# Method: The collective data of the study confirmed the therapeutic efficacy of dextran sulfate given s.c. for the treatment of occlusive peripheral arterial disease in the Balb/c mouse animal model.
# No adverse effect on general health was recorded in any of the groups. […] The findings reflect changes in blood vessel morphology, i.e. capillaries density increase, and blood vessels angiogenesis.
# tMCAO rat-stroke model = test: Stepping test, tMCAO rat; assay type: in vivo; conditions: groups 2M and 3M; from day 7 to day 28
# Method: Transient middle cerebral artery occlusion was performed according to the method previously described in Stroke 29, 2162-2170 (1998). The right common carotid artery (CCA) was exposed through a midline neck incision and carefully dissected free from surrounding nerves and fascia—from its bifurcation to the base of the skull. The occipital artery branches of the external carotid artery (ECA) were then isolated, and these branches were dissected and coagulated. The ECA was dissected further distally and coagulated along with the terminal lingual and maxillary artery branches, which was then divided. The internal carotid artery (ICA) was isolated and carefully separated from the adjacent vagus nerve, and the pterygopalatine artery was ligated close to its origin with a 5-0 nylon suture (SMI, Belgium). […]
# Animals were tested for forelimb akinesia using the stepping test. […] The number of adjusting steps were counted while the animal was moved sideways along the table surface (85 cm in approximately five seconds), in the forehand and backhand direction for both forelimbs.
# [3] = system: Rat Hind-Limb Ischemia Model; test: Blood flow by non-contact LASER Doppler, rat hind-limb ischemia; assay type: in vivo; conditions: for Mean change in blood flow from Day 0 to Day 28: vehicle 14.8
# Method: The femoral artery and vein were ligated twice with 4-0 silk thread and transected between the ligatures. The wound was closed with 3-0 silk thread and the rats were allowed to recover.
# Animals in group 4M and 5M were injected s.c. once on Day 8, see Table 12.
# Blood flows in legs from both sides were measured with a non-contact LASER Doppler before surgery on Day −1 and on Days: 1, 7, 14, 21 and 28 post operation. Blood flow measurements were expressed as the ratio of the flow in the ischemic limb to that in the normal limb.
# [4] = system: Rat Hind-Limb Ischemia Model; test: Angiography analysis, rat hind-limb ischemia; assay type: in vivo; conditions: 28 days after induction of hind-limb ischemia; p<0.01 and p<0.001
# Method: The number of intersections between contrast-filled vessels was determined by image analysis 28 days after induction of hind-limb ischemia.
# [5] = system: Critical Hind-Limb Ischemia Mouse Model; test: Macroscopic evaluation of ischemic severity (necrosis grades), mouse hind-limb ischemia
# Text: On the day of surgery anesthesia was induced by 1.5 to 3.0% isoflurane, 1.5% N2O and 0.5% O2. Under anesthesia, the mice were placed with ventral side up. A 0.5-1.0 cm incision was made in the skin in the inguinal area. The femoral artery was ligated proximally just after the distal part of the iliac artery and distally after its bifurcation with profound femoral artery with 6-0 silk thread, transected and excised between two ligatures. The wound was closed with 4-0 silk thread and the mice were allowed to recover.
# On day 8, week 2 post-surgery, each animal in groups 2M and 3M were injected dextran sulfate solution s.c. three times a week.
# [6] = day 7 (before treatment start day 8), group 2M, 10 mg/kg 3 times/week
# [7] = day 7 (before treatment start day 8), group 3M, 30 mg/kg 3 times/week
# [8] = day 7 (before treatment start day 8), group 4M, 30 mg/kg 1 time/week
substance,measurement,setting,value
Dextran sulfate,Mean weight change from day 0 to day 35,"[1]; group 2M, 10 mg/kg s.c. 3 times/week from day 8",1.0 g
same,Mean weight change from day 0 to day 35,"[1]; group 3M, 30 mg/kg s.c. 3 times/week from day 8",1.7 g
same,Mean weight change from day 0 to day 35,"[1]; group 4M, 30 mg/kg s.c. 1 time/week from day 8",1.0 g
same,"Mean body weight, differences between the groups","[1]; throughout the study, two-way ANOVA, Bonferroni",no statistically significant differences
same,Adverse effects in the treated animals,[2],did not cause any adverse effects
same,"Stepping test, functional improvement compared to control",tMCAO rat-stroke model,improvement reached statistical significance
same,Mean change in blood flow from Day 0 to Day 28,"[3]; group 2M, 30 mg/kg s.c. 3 times a week starting on Day 8",47.7%
same,Mean change in blood flow from Day 0 to Day 28,"[3]; group 3M, 30 mg/kg (as printed in Table 12) s.c. 3 times a week starting on Day 8",39.1%
same,Mean change in blood flow from Day 0 to Day 28,"[3]; group 4M, 30 mg/kg s.c. administered once",44.0%
same,Mean change in blood flow from Day 0 to Day 28,"[3]; group 5M, 3 mg/kg s.c. administered once",41.0%
same,"Ratio of blood flow HLI-injured versus non-injured leg, treated groups vs control","[3]; groups 2M, 3M, 4M and 5M vs 1M, Day 14 through Day 28",statistically significant differences
same,Angiography: collaterals in affected limb vs vehicle control,[4],significantly large numbers of collaterals
same,Incidence of mice with limb amputation,[5]; [6],0.0%
same,Incidence of mice with toe necrosis,[5]; [6],0.0%
same,Incidence of mice with limb amputation,[5]; [7],0.0%
same,Incidence of mice with toe necrosis,[5]; [7],0.0%
same,Incidence of mice with limb amputation,[5]; [8],0.0%
same,Incidence of mice with toe necrosis,[5]; [8],0.0%
same,Incidence of mice with limb amputation,"[5]; day 35, group 2M, 10 mg/kg s.c. 3 times/week, vehicle 15.4",0.0%
same,Incidence of mice with toe necrosis,"[5]; day 35, group 2M, 10 mg/kg s.c. 3 times/week, vehicle 23.1",21.4%
same,Incidence of mice with limb amputation,"[5]; day 35, group 3M, 30 mg/kg s.c. 3 times/week, vehicle 15.4",0.0%
same,Incidence of mice with toe necrosis,"[5]; day 35, group 3M, 30 mg/kg s.c. 3 times/week, vehicle 23.1",14.3%
same,Incidence of mice with limb amputation,"[5]; day 35, group 4M, 30 mg/kg s.c. 1 time/week, vehicle 15.4",7.1%
